Assay [1] concerns the target PIM1 (Homo sapiens (Human), UniProt P11309). The assay is described as follows: biochemical. As to conditions: 10 μM ATP, 90 min, room temperature; read-out: PIM1 LC3K (KI). It is filed as biochemical. A digest of the protocol:
(§1)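 Read-out is microfluidic electrophoretic separation of phosphorylated from unphosphorylated fluorescent Pim peptide, with Ki calculated from conversion. Reactions ran 90 min at room temperature in HEPES pH 7.2 containing MgCl2, Tween 20 and DTT, ended by EDTA-containing buffer.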

The subject of assay [2] is MM1.S (multiple myeloma) cells. The assay is described as follows: In vitro cell proliferation potency assay (Cell Titer Glo), MM1.S cells. It is filed as cell-based. As to conditions: read-out: Prolif MM1S ATP (EC50). Here is the method:
BaF3 parental line was obtained from the DSMZ repository. BaF3 lines transfected with PIM1 or PIM2 were generated. Mouse IL-3 was purchased from R&D Systems. G418 was purchased from Clontech. Media for BaF3 parental line contained RPMI, 10% FBS, 2 mM L-Glutamine, 2 ng/mL mIL-3. Media for BaF3 PIM1 & 2 lines contained RPMI, 10% FBS, 2 mM L-Glutamine, […]. Media for MM1.S (multiple myeloma cells) line contained RPMI, 10% FBS, 2 mM L-Glutamine.
BaF3, a murine interleukin-3 dependent pro-B cell line, parental cells, BaF3 PIM1 cells, BaF3 PIM2 cells, and MM1.S (multiple myeloma) cells were seeded at 2 k/well, 5 k/well, 5 k/well, and 10 k/well respectively, in a 384-well plate, at 45 μL/well. Test compound was added at 5 μL/well. BaF3 cells (parental and transfected) were incubated overnight, while MM1.S cells were incubated for 72 hours at 37° C., 5% CO2. CELL TITER GLO® Reagent (Promega) was added at 50 μL/well, the plates were incubated for 30 minutes, and their luminescence read on an HT Analyst. IC50/EC50 values for the test compound were calculated.
(In general: In ATP-based viability assays light output follows the ATP content of the culture.)

Assay [3] has as its target PIM3 (Homo sapiens (Human), UniProt Q86V86). The assay is described as follows: Pim kinase binding activity, Caliper LC3000 microfluidic peptide phosphorylation assay, PIM3. The settings on record: 10 μM ATP, 90 min, room temperature; read-out: PIM3 LC3K (KI). It is filed as biochemical. An outline of the steps: as §1
The target in assay [4] is PIM2 (Homo sapiens (Human), UniProt Q9P1W9). The assay is described as follows: Pim kinase binding activity, Caliper LC3000 microfluidic peptide phosphorylation assay, PIM2. It is filed as biochemical. The settings on record: 10 μM ATP, 90 min, room temperature; read-out: PIM2 LC3K (KI). A digest of the protocol: as §1
The test system of assay [5] is BaF3 PIM1 cells. The assay is described as follows: In vitro cell proliferation potency assay (Cell Titer Glo), BaF3 PIM1 cells. It is filed as cell-based, murine. As to conditions: read-out: Prolif BaF3_PIM 1 (IC50).
Where [6] appears, read: Homo sapiens, MM1.S cells, 72 hours.
Where [7] appears, read: Mus musculus, BaF3, BaF3 cells transfected with PIM1, incubated overnight.
Where [8] appears, read: Homo sapiens, MM1.S, 72 h, MM1.S cells, 72 hours.
Setting [9] is: BaF3 cells transfected with PIM1, incubated overnight.

Molecules are shown by their SMILES. Structures can show the parent of a compound that is named as a salt. Where two headings read alike, the source gives them in different places.

Sequence of PIM1 (P11309 whole entry): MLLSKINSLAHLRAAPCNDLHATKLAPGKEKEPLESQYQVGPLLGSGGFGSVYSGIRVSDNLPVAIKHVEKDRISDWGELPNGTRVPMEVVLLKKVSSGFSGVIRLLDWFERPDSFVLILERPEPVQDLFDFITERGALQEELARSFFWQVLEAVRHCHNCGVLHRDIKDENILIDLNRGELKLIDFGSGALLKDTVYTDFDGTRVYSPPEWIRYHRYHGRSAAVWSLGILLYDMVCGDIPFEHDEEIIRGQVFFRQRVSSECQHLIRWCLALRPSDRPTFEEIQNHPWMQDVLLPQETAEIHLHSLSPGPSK
Sequence of PIM2 (Q9P1W9 whole entry): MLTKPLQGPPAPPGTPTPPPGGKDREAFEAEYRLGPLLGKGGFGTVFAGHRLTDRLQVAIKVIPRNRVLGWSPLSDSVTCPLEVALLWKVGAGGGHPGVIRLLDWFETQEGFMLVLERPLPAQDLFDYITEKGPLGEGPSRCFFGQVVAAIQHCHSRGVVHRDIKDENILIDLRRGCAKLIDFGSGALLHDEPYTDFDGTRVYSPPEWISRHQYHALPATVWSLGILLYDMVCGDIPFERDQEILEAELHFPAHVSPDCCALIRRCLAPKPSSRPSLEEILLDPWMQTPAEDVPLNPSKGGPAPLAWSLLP

As a reminder, the Ki is the dissociation constant of the complex between target and ligand, obtained from inhibition or displacement. In general, EC50 refers to the concentration needed to bring the measured effect to its halfway point. Usually IC50 stands for the concentration at which inhibition is half-maximal. In the case of `COC1(c2cccc(-n3ncc4cnc(-c5cncc(C)n5)cc43)n2)CCCNC1` (centres unmarked) [Compound 295, 1-(6-(3-methoxypiperidin-3-yl)pyridin-2-yl)-6-(6-methylpyrazin-2-yl)-1H-pyrazolo[4,3-c]pyridine], the Ki in assay [1] was determined as 0.256 nM; in assay [3] it was 0.144 nM; in assay [4] it was 1.43 nM. In addition, in assay [2] (setting [6]), the half-maximal effective concentration (EC50) amounted to 10900 nM. Also, the concentration for half-maximal inhibition (IC50) in assay [5] (setting [7]) worked out at 425 nM.
As to `N[C@H]1CCC[C@@H]1Oc1cncc(-c2cc3c(cn2)cnn3-c2ccccn2)n1` [Compound 304, (1S,2S)-2-(6-(1-(pyridin-2-yl)-1H-pyrazolo[4,3-c]pyridin-6-yl)pyrazin-2-yloxy)cyclopentanamine], the inhibition constant Ki was 0.094 nM in assay [1], 0.07 nM in assay [3] and 0.744 nM in assay [4]. Besides, the half-maximal effective concentration (EC50) in assay [2] (setting [6]) was determined as 1200 nM. Besides, the IC50 in assay [5] (setting [7]) was found to be 255 nM.
On to `CCNc1cncc(-c2cc3c(cn2)cnn3-c2cccc(N3CCNCC3)n2)n1` [Compound 285, N-ethyl-6-(1-(6-(piperazin-1-yl)pyridin-2-yl)-1H-pyrazolo[4,3-c]pyridin-6-yl)pyrazin-2-amine], for which the Ki in assay [1] turned out to be 0.044 nM; in assay [4], 2.28 nM. In addition, the half-maximal effective concentration (EC50) in assay [2] (setting [8]) was 6400 nM. Besides, the half-inhibitory concentration (IC50) in assay [5] (setting [7]) was 112 nM.
As to `Cc1ccc(-n2ncc3cnc(-c4cnn(CC(F)(F)F)c4)cc32)nc1N1CCNC[C@@H](O)C1` (single isomer, unassigned) [Compound 260], the Ki in assay [1] amounted to 0.047 nM; in assay [3], 0.127 nM; in assay [4], 1.54 nM. For the same molecule, the concentration giving a half-maximal response (EC50) in assay [2] (Homo sapiens, MM1.S, 72 h) was found to be 852 nM. In assay [5] (setting [7]), the IC50 amounted to 380 nM.
Consider `Cc1cncc(-c2cc3c(cn2)cnn3-c2ccc3c(n2)CC(CN)CO3)n1` (centres unmarked) [Compound 292, (6-(6-(6-methylpyrazin-2-yl)-1H-pyrazolo[4,3-c]pyridin-1-yl)-3,4-dihydro-2H-pyrano[3,2-b]pyridin-3-yl)methanamine], for which the Ki in assay [1] stood at 1.6 nM; in assay [3] it was 0.796 nM; in assay [4], 19.4 nM. Also, the concentration giving a half-maximal response (EC50) in assay [2] (setting [6]) was found to be 11700 nM.
Consider `N[C@H]1CCC[C@@H]1Nc1cncc(-c2cc3c(cn2)cnn3-c2ccccn2)n1` [Compound 307, (1S,2S)-N1-(6-(1-(pyridin-2-yl)-1H-pyrazolo[4,3-c]pyridin-6-yl)pyrazin-2-yl)cyclopentane-1,2-diamine], for which the values for the inhibition constant Ki in assay [1], in assay [3] and in assay [4] were 0.12 nM, 0.098 nM and 2.97 nM, respectively. The concentration giving a half-maximal response (EC50) in assay [2] (setting [8]) came out at 2900 nM. For the same molecule, the IC50 in assay [5] (setting [7]) came out at 640 nM.
The matching figures for `Cc1cncc(-c2cc3c(cn2)cnn3-c2cccc(N3CCNCC3)n2)n1` [Compound 123, 6-(6-methylpyrazin-2-yl)-1-(6-(piperazin-1-yl)pyridin-2-yl)-1H-pyrazolo[4,3-c]pyridine]: 0.095 nM, 0.0498 nM, 0.893 nM, 3900 nM and 284 nM.
On to `Cc1cncc(-c2cc3c(cn2)cnn3-c2cccc(N3CCNC(C)C3)n2)n1` (single isomer, unassigned) [Compound 185, 1-[6-(3-methylpiperazin-1-yl)-2-pyridyl]-6-(6-methylpyrazin-2-yl)pyrazolo[4,3-c]pyridine], for which the Ki in assay [1] is 0.06 nM; in assay [3], 0.022 nM; in assay [4], 0.54 nM. In assay [2] (setting [6]), the 50% effective concentration (EC50) was determined as 4800 nM. In assay [5] (setting [9]), the IC50 is 400 nM.
Turning to `CC(C)n1cc(-c2cc3c(cn2)cnn3-c2cccc(N3CCCNCC3)n2)cn1` [Compound 146, 1-(6-(1,4-Diazepan-1-yl)pyridin-2-yl)-6-(1-isopropyl-1H-pyrazol-4-yl)-1H-pyrazolo[4,3-c]pyridine], the inhibition constant Ki amounted to 0.532 nM in assay [1], 0.656 nM in assay [3] and 7.81 nM in assay [4]. For the same molecule, the concentration giving a half-maximal response (EC50) in assay [2] (setting [6]) was determined as 4300 nM. Also, the IC50 in assay [5] (setting [7]) came out at 797 nM.
As for `COc1ccc(-n2ncc3cnc(-c4cncc(C)n4)cc32)nc1N1CCC[C@H](N)C1` [Compound 186, (S)-1-(3-methoxy-6-(6-(6-methylpyrazin-2-yl)-1H-pyrazolo[4,3-c]pyridin-1-yl)pyridin-2-yl)piperidin-3-amine], the inhibition constant Ki in assay [1] amounted to 0.0212 nM; in assay [3] it was 0.013 nM; in assay [4] it was 0.134 nM. Moreover, the EC50 in assay [2] (setting [6]) was 508 nM. Besides, the half-maximal inhibitory concentration (IC50) in assay [5] (setting [7]) came to 220 nM.
In the case of `Cn1cc(-c2cc3c(cn2)cnn3-c2cccc(N3CCNC[C@H](O)C3)n2)cn1` [Compound 231, (S)-1-(6-(6-(1-Methyl-1H-pyrazol-4-yl)-1H-pyrazolo[4,3-c]pyridin-1-yl)pyridin-2-yl)-1,4-diazepan-6-ol], the Ki in assay [1] was determined as 0.078 nM; in assay [3], 0.032 nM; in assay [4] it was 1.39 nM. For the same molecule, the EC50 in assay [2] (setting [8]) was found to be 2200 nM.
Regarding `C=Cc1cncc(-c2cc3c(cn2)cnn3-c2cccc(N3CCNCC3)n2)n1` [Compound 274, 1-(6-(piperazin-1-yl)pyridin-2-yl)-6-(6-vinylpyrazin-2-yl)-1H-pyrazolo[4,3-c]pyridine dihydrochloride], the Ki in assay [1] amounted to 0.133 nM; in assay [3] it was 0.098 nM; in assay [4], 4.26 nM. Besides, the EC50 in assay [2] (Homo sapiens, MM1.S, 72 h) was determined as 5100 nM. Besides, the concentration for half-maximal inhibition (IC50) in assay [5] (setting [7]) worked out at 749 nM.
In the case of `Cc1cncc(-c2cc3c(cn2)cnn3-c2cccc(C3CNCCC3(F)F)n2)n1` (single isomer, unassigned) [Compound 271], the figures for the Ki in assay [1] and in assay [4] were 0.189 nM and 2.45 nM, respectively. The 50% effective concentration (EC50) in assay [2] (MM1.S cells, 72 hours) is 4900 nM. In assay [5] (setting [9]), the IC50 is 1400 nM.
Regarding `Cc1cncc(-c2cc3c(cn2)cnn3-c2cccc(N3CCCC4(CNC4)C3)n2)n1` [Compound 293, 1-(6-(2,6-diazaspiro[3.5]nonan-6-yl)pyridin-2-yl)-6-(6-methylpyrazin-2-yl)-1H-pyrazolo[4,3-c]pyndine], the inhibitory constant (Ki) in assay [1] is 0.061 nM; in assay [3] it was 0.112 nM; in assay [4] it was 1.48 nM. In addition, the EC50 in assay [2] (setting [6]) was found to be 7200 nM. The IC50 in assay [5] (setting [7]) came to 976 nM.
As to `Nc1cncc(-c2cc3c(cn2)cnn3-c2cccc(N3CCCNCC3)n2)n1` [Compound 247, 6-(1-(6-(1,4-diazepan-1-yl)pyridin-2-yl)-1H-pyrazolo[4,3-c]pyridin-6-yl)pyrazin-2-amine], the inhibitory constant (Ki) in assay [1] is 0.023 nM; in assay [3] it was 0.026 nM; in assay [4] it was 0.664 nM. In assay [2] (setting [6]), the EC50 amounted to 2500 nM.
As for `Cc1cncc(-c2cc3c(cn2)cnn3-c2cccc(N3CCCC4(CN(C=O)C4)C3)n2)n1` [Compound 291, 6-(6-(6-(6-methylpyrazin-2-yl)-1H-pyrazolo[4,3-c]pyridin-1-yl)pyridin-2-yl)-2,6-diazaspiro[3.5]nonane-2-carbaldehyde], the Ki is 4.41 nM in assay [1], 3.42 nM in assay [3] and 40.9 nM in assay [4]. Also, in assay [2] (Homo sapiens, MM1.S, 72 h), the 50% effective concentration (EC50) was above 25000 nM.
Regarding `Cc1cncc(-c2cc3c(cn2)cnn3-c2cccc(C3CNCCC3(F)F)n2)n1` (single isomer, unassigned) [Compound 272], the figures for the Ki in assay [1] and in assay [4] were 0.067 nM and 0.234 nM, respectively. Moreover, the EC50 in assay [2] (MM1.S cells, 72 hours) came out at 1200 nM. The IC50 in assay [5] (setting [9]) worked out at 194 nM.
Take `Cc1cncc(-c2cc3c(cn2)cnn3-c2cccc(OC3CCCC(N)C3)n2)n1` (centres unmarked) [Compound 311, 3-(6-(6-(6-methylpyrazin-2-yl)-1H-pyrazolo[4,3-c]pyridin-1-yl)pyridin-2-yloxy)cyclohexanamine]: the Ki in assay [1] came out at 0.069 nM; in assay [3] it was 0.036 nM. Moreover, in assay [2] (setting [8]), the 50% effective concentration (EC50) is 5500 nM. Besides, the half-maximal inhibitory concentration (IC50) in assay [5] (setting [7]) was found to be 1000 nM.
With `FC(F)(F)Cn1cc(-c2cc3c(cn2)cnn3-c2cccc(N3CCCNCC3)n2)cn1` [Compound 154, 1-(6-(1,4-Diazepan-1-yl)pyridin-2-yl)-6-(1-(2,2,2-trifluoroethyl)-1H-pyrazol-4-yl)-1H-pyrazolo[4,3-c]pyridine], in assay [2] (setting [8]), the EC50 was determined as 2300 nM. Besides, the values for the inhibitory constant (Ki) in assay [3] and in assay [4] were 0.175 nM and 1.01 nM, respectively.
In the case of `O[C@H]1CCC[C@@H]1Nc1cncc(-c2cc3c(cn2)cnn3-c2cccc(N3CCNCC3)n2)n1` [Compound 283], the EC50 in assay [2] (setting [8]) turned out to be 8900 nM. Moreover, the Ki in assay [3] stood at 0.182 nM; in assay [4], 8.05 nM.
Turning to `Cc1cncc(-c2cc3c(cn2)cnn3-c2cccc(C3(F)CCCNC3)n2)n1` (centres unmarked) [Compound 294, 1-(6-(3-fluoropiperidin-3-yl)pyridin-2-yl)-6-(6-methylpyrazin-2-yl)-1H-pyrazolo[4,3-c]pyridine], the Ki in assay [1] was determined as 0.514 nM; in assay [4], 2.37 nM. Moreover, in assay [2] (setting [8]), the concentration giving a half-maximal response (EC50) amounted to 9300 nM. In addition, the IC50 in assay [5] (setting [7]) worked out at 772 nM.

The values above are taken from US9434725B2, “5-azaindazole compounds and methods of use” (priority 2012, dated 2016).
